Measurements published in EPA's ToxRefDB 2.

Experiments:
rat [1] = settings: Prenatal developmental toxicity study, other, Oral, Gavage/Intubation, dose end: 15 GD
rat [2] = settings: Prenatal developmental toxicity study, other, Oral, Gavage/Intubation, dose end: 15 GD; remark: listed apart in the source
rat [3] = settings: Subchronic oral toxicity in rodents, other, Gavage/Intubation, dose end: 90 day, group: systemic, systemic / pathology microscopic / stomach / inflammation + systemic / pathology gross / stomach / thickened + systemic / pathology …
rat [4] = settings: Prenatal developmental toxicity study, wistar, Oral, Gavage/Intubation, dose end: 18 GD
mouse [5] = settings: Multigenerational reproductive toxicity study, cd1, Oral, Feed, dose end: 1 generation
mouse [6] = settings: Prenatal developmental toxicity study; cd1; Oral; Gavage/Intubation; dose end: 16 GD; group: developmental; developmental / developmental landmark / vaginal opening / vaginal opening + systemic / in life observation / body weight / litter weight + …
mouse [7] = settings: Multigenerational reproductive toxicity study; cd1; Oral; Feed; dose end: 2 generation; group: reproductive; reproductive / reproductive performance / reproductive performance other / NOS + reproductive / reproductive performance / fertility / …
mouse [8] = settings: Prenatal developmental toxicity study, cd1, Injection, Subcutaneous, dose end: 16 GD
mouse [9] = settings: Developmental neurotoxicity study, other, Oral, Gavage/Intubation, dose end: 147 PND, group: cannot be grouped
[10] = group: developmental, developmental / developmental malformation / bone / curled + developmental / developmental malformation / mouth / jaw / cleft palate + …
[11] = group: maternal, systemic / in life observation / body weight / body weight gain
[12] = group: developmental, developmental / developmental malformation / bone / bent + developmental / developmental malformation / mouth / jaw / cleft palate + …
[13] = group: maternal, systemic / in life observation / body weight / body weight
[14] = group: maternal, systemic / in life observation / body weight / body weight + reproductive / reproductive performance / resorptions / resorptions + systemic…
[15] = group: developmental, systemic / in life observation / body weight / offspring (pup) weight + systemic / organ weight / epididymis / absolute + systemic / organ …
[16] = group: maternal, reproductive / reproductive performance / gestational length / gestational length + systemic / in life observation / body weight / body …
[17] = group: developmental, developmental / developmental malformation / general / [other] + developmental / developmental landmark / nipple development / nipple …
[18] = systemic / clinical chemistry / [other] / [other] + systemic / in life observation / clinical signs / [other] + systemic / in life …
[19] = systemic / in life observation / clinical signs / [other] + systemic / in life observation / clinical signs / aggressive behavior

## CCC12COCN1COC2 [5-Ethyl-1-aza-3,7-dioxabicyclo[3.3.0]octane]
Rat [1]; [10]
  LEL: 650 mg/kg/day
  LOAEL: 650 mg/kg/day
  NEL: 250 mg/kg/day
  NOAEL: 250 mg/kg/day
Rat [1]; [11]
  LEL: 650 mg/kg/day
  LOAEL: 650 mg/kg/day
  NEL: 250 mg/kg/day
  NOAEL: 250 mg/kg/day
Rat [2]; [12]
  LEL: 750 mg/kg/day
  LOAEL: 750 mg/kg/day
  NEL: 500 mg/kg/day
  NOAEL: 500 mg/kg/day
Rat [2]; [13]
  LEL: 500 mg/kg/day
  LOAEL: 500 mg/kg/day
Rat [2]; [14]
  NEL: 250 mg/kg/day
  NOAEL: 250 mg/kg/day
Rat [3]
  LEL: 50 mg/kg/day
  LOAEL: 50 mg/kg/day

## CC/C(=C(/CC)c1ccc(O)cc1)c1ccc(O)cc1 [Diethylstilbestrol]
Rat [4]; [15]
  LEL: 0.03 mg/kg/day
  LOAEL: > 0.03 mg/kg/day
  NEL: < 0.03 mg/kg/day
  NOAEL: ≥ 0.03 mg/kg/day
Rat [4]; [16]
  LEL: 0.03 mg/kg/day
  LOAEL: > 0.03 mg/kg/day
  NEL: < 0.03 mg/kg/day
  NOAEL: ≥ 0.03 mg/kg/day
Mouse [5]; group: offspring, systemic / in life observation / body weight / offspring (pup) weight
  NOAEL: ≥ 7.5e-09 mg/kg/day
Mouse [5]; group: reproductive, reproductive / reproductive performance / reproductive performance other / NOS + reproductive / reproductive performance / fertility / …
  NOAEL: ≥ 7.5e-09 mg/kg/day
Mouse [6]
  LEL: 0.01 mg/kg/day
  LOAEL: > 0.01 mg/kg/day
  NEL: < 0.01 mg/kg/day
  NOAEL: ≥ 0.01 mg/kg/day
Mouse [7]
  NOAEL: ≥ 7.5e-09 mg/kg/day
Mouse [8]; [17]
  LEL: 0.1 mg/kg/day
  LOAEL: > 0.1 mg/kg/day
  NEL: 0.05 mg/kg/day
  NOAEL: ≥ 0.1 mg/kg/day
Mouse [8]; [11]
  LEL: 0.0025 mg/kg/day
  LOAEL: 0.0025 mg/kg/day
  NEL: < 0.0025 mg/kg/day
  NOAEL: < 0.0025 mg/kg/day
Mouse [9]; [18]
  LOAEL: > 0.003 mg/kg/day
  NOAEL: ≥ 0.003 mg/kg/day
Mouse [9]; [19]
  LEL: 0.0003 mg/kg/day
  NEL: < 0.0003 mg/kg/day
